In patent US10604512B2, “3-(1H-indol-2-yl)-1H-indazoles and therapeutic uses thereof” (Samumed, LLC, priority 2015, dated 2020) one finds EC50 data, which are given here for ten molecules.

The structures appear in SMILES notation.

Common to all, as to format: cell-based
Test [1] relates to Wnt activity (Sp5-Luc reporter, TCF/LEF binding sites) in SW480 colon carcinoma cells. Put plainly: Screening assay for Wnt activity: Sp5-Luc reporter gene assay in stably transduced SW480 colon carcinoma cells. The settings on record: Homo sapiens, overnight incubation, 10-point curve from 10 μM. An excerpt: The screening assay for Wnt activity is described as follows. Reporter cell lines can be generated by stably transducing cancer cell lines (e.g., colon cancer) or primary cells (e.g., IEC-6 intestinal cells) with a lentiviral construct that includes a Wnt-responsive promoter driving expression of the firefly luciferase gene.
SW480 colon carcinoma cells were transduced with a lentiviral vector expressing luciferase with a human Sp5 promoter consisting of a sequence of eight TCF/LEF binding sites. SW480 cells stably expressing the Sp5-Luc reporter gene and a hygromycin resistance gene were selected by treatment with 150 μg/mL of hygromycin for 7 days. These stably transduced SW480 cells were expanded in cell culture and used for all further screening activities. Each compound was dissolved in DMSO as a 10 mM stock and used to prepare compound source plates. Serial dilution (1:3, 10-point dose-response curves starting from 10 μM) and compound transfer was performed using the ECHO 550 (Labcyte, Sunnyvale, Calif.) into 384-well white solid bottom assay plates (Greiner Bio-One) with appropriate DMSO backfill for a final DMSO concentration of 0.1%. For Sp5-Luc reporter gene assays, the cells were plated at 4,000 cells/well in 384-well plates with medium containing 1% fetal bovine serum and incubated overnight at 37° C. and 5% CO2. Following incubation, 20 μl of BrightGlo luminescence reagent (Promega) was added to each well of the 384-well assay plates. The plates were placed on an orbital shaker for 2 min and then luminescence was quantified using the Envision (Perkin Elmer) plate reader. Readings were normalized to DMSO only treated cells, and normalized activities were utilized for EC50 calculations using the dose-response log (inhibitor) vs. response variable slope (four parameters) nonlinear regression feature available in GraphPad Prism 5.0 (or Dotmatics). For EC50 of >10 μM, the percent inhibition at 10 μM is provided.
For orientation: Reporter assays use an easily measured gene product as a stand-in for the process of interest.

For another test, the system named is SW480 colon cancer cells. Put plainly: Cell viability assay (CellTiter-Blue) in SW480 colon cancer cells. As to conditions: Homo sapiens, 96 h, four days, CellTiter-Blue. The method, then:
Representative compounds were screened using the following assay procedure to assess the effect on cell viability as described below.
Each compound was dissolved in DMSO as a 10 mM stock and used to prepare compound source plates. Serial dilution (1:3, 8-point dose-response curves from 10 μM to 0.0045 μM) and compound transfer was performed using the ECHO 550 (Labcyte, Sunnyvale, Calif.) into 96-well clear bottom, black-walled plates (Corning-Costar).
Approximately 2×10^3 SW480 colon cancer cells were seeded into each well and allowed to incubate in the presence or absence of compound for four days at 37° C./5% CO2. Eight replicates of DMSO-treated cells served as controls and cells treated with compound were performed in duplicate.
After incubation, 20 μL of CellTiter-Blue (Promega) was added to each well allowed to incubate for approximately 3 hours. This reagent was a buffered solution which contains resazurin, metabolically active cells were able to reduce rezarurin (blue) into resorufin (pink) which was highly fluorescent. This measured fluorescence was used as a readout for cell viability.
After incubation, the plates were read at Ex 560 nm Em 590 nm (Cytation 3, BioTek). Dose-response curves were generated and EC50 concentration values were calculated using non-linear regression curve fit in the GraphPad Prism (San Diego, Calif.) or Dotmatics' Studies Software (Bishops Stortford, UK). For EC50 of >10 μM, the percent inhibition at 10 μM is provided.
On the technique in general: Resazurin is reduced to fluorescent resorufin, in cell work by metabolically active cells.

Test [2] has as its system Primary human fibroblasts derived from IPF patients (LL29 cells) treated with TGF-β1. Put plainly: Inhibition of the fibrotic process: αSMA staining in TGF-β1-treated primary human fibroblasts from IPF patients (LL29 cells). As to conditions: Fibroblast, 96 h, % αSMA-positive LL29 cells, TGF-β1 20 ng/mL, 4 days. An excerpt: Representative compounds were screened using primary human fibroblasts (derived from IPF patients) treated with TGF-β1 to determine their ability to inhibit the fibrotic process.
Primary human fibroblasts derived from IPF patients (LL29 cells) [^1Xiaoqiu Liu, et. al., “Fibrotic Lung Fibroblasts Show Blunted Inhibition by cAMP Due to Deficient cAMP Response Element-Binding Protein Phosphorylation”, Journal of Pharmacology and Experimental Therapeutics (2005), 315(2), 678-687; ^2Watts, K. L., et. al., “RhoA signaling modulates cyclin D1 expression in human lung fibroblasts; implications for idiopathic pulmonary fibrosis”, Respiratory Research (2006), 7(1), 88] were obtained from American Type Culture Collection (ATCC) and expanded in F12 medium supplemented with 15% Fetal Bovine Serum and Penicillin/Streptomycin.
Each compound was dissolved in DMSO as a 10 mM stock and used to prepare compound source plates. Serial dilution (1:2, 11-point dose-response curves from 10 μM to […]) and compound transfer was performed using the ECHO 550 (Labcyte, Sunnyvale, Calif.) into 384-well clear bottom assay plates (Greiner Bio-One) with appropriate DMSO backfill for a final DMSO concentration of 0.1%. LL29 cells are plated at 1,500 cells/well in 80 μL/well F12 medium supplemented with 1% Fetal Bovine Serum. One hour after addition of the cells, TGF-β1 (Peprotech; 20 ng/mL) was added to the plates to induce fibrosis (ref 1 and 2 above). Wells treated with TGF-β1 and containing DMSO were used as controls. Cells were incubated at 37° C. and 5% CO2 for 4 days. Following incubation for 4 days, SYTOX green nucleic acid stain (Life Technologies [Thermo Fisher Scientific]) was added to the wells at a final concentration of 1 μM and incubated at room temperature for 30 min. Cells were then fixed using 4% formaldehyde (Electron Microscopy Sciences), washed 3 times with PBS followed by blocking and permeabilization using 3% Bovine Serum Albumin (BSA; Sigma) and 0.3% Triton X-100 (Sigma) in PBS. Cells were then stained with antibody specific to α-smooth muscle actin (αSMA; Abcam) (ref 1 and 2 above) in 3% Bovine Serum Albumin (BSA; Sigma) and 0.3% Triton X-100 (Sigma) in PBS, and incubated overnight at 4° C. Cells were then washed 3 times with PBS, followed by incubation with Alexa Flor-647 conjugated secondary antibody (Life Technologies [Thermo Fisher Scientific]) and DAPI at room temperature for 1 hour. Cells were then washed 3 times with PBS and plates were sealed for imaging. αSMA staining was imaged by excitation at 630 nm and emission at 665 nm and quantified using the Compartmental Analysis program on the CellInsight CX5 (Thermo Scientific). Dead or apoptotic cells were excluded from analysis based on positive SYTOX green staining. % of total cells positive for αSMA were counted in each well and normalized to the average of 11 wells treated with TGF-β1 on the same plate using Dotmatics' Studies Software. The normalized averages (fold change over untreated) of 3 replicate wells for each compound concentration were used to create dose-responses curves and EC50 values were calculated using non-linear regression curve fit in the Dotmatics' Studies Software. For EC50 of >10 μM, the percent inhibition at 10 μM is provided.

The subject of a further test is IL-6. Put plainly: Inhibition of IL-6 in LPS-stimulated THP-1 human monocyte cells (HTRF). As to conditions: IL-6 inhibition, LPS-stimulated THP-1 cells, HTRF. How it is done: Human monocyte cell line (THP-1 cells; Catalog # TIB-202, ATCC, Manassas, Va.) were cultured in Roswell Park Memorial Institute (RPMI) 1640 Medium (Catalog #21870-100, Buffalo, N.Y.) with 1% L-glutamine, 1% HEPES, 1% Sodium Pyruvate, 2% Sodium Bicarbonate supplemented with 100 units/mL penicillin, 50 μg/mL streptomycin, 2-mercaptoethanol (0.05 mM) [basal medium] and 10% fetal bovine serum (Catalog #16140089, Life Technologies, Carlsbad, Calif.) at 37° C. and 5% CO2.
THP-1 cells were cultured in basal media with 1% FBS for 24 hours before the start of the assay. Each compound was dissolved in DMSO as a 10 mM stock and used to prepare compound source plates. Serial dilution (1:3, 10-point dose-response curves starting from 10 μM) and compound transfer was performed using the ECHO 550 (Labcyte, Sunnyvale, Calif.) into 384-well white low volume assay plates (Greiner Bio-One) with appropriate DMSO backfill for a final DMSO concentration of 0.1%. THP-1 cells were plated at 5000 cells/well in the 384-well plates and incubated at 37° C. for 2 h. 500 ng/mL of LPS was added after 2 hours and cells were incubated for another 22 hours at 37° C. Plates were spun in a centrifuge for 1 minute at […] and a mixture of anti-IL6 XL665, and anti-IL6 Cryptate diluted in reconstitution buffer (Cisbio Inc.) was added to each well. Following incubation for 3 hrs at room temperature, Homogeneous Time-Resolved Fluorescence (HTRF) was measured using the Envision (Perkin Elmer) at 665 nm and […]. The ratio of fluorescence at 665 nm to 620 nm was used as a readout for IL6 quantification. All samples were processed in duplicate. Readings were normalized to DMSO treated cells and normalized activities were utilized for EC50 calculations using the dose-response log (inhibitor) vs. response variable slope (four parameters) nonlinear regression feature available in GraphPad Prism 5.0 (or Dotmatics). For EC50 of >10 μM, the percent inhibition at 10 μM is provided.

By EC50 is commonly meant the concentration needed to bring the measured effect to its halfway point.

Consider `CS(=O)(=O)NCc1cc(F)cc(-c2cccc3[nH]c(-c4n[nH]c5ccc(-c6cncc(N)c6)cc45)cc23)c1` [Compound 479, N-(3-(2-(5-(5-Aminopyridin-3-yl)-1H-indazol-3-yl)-1H-indol-4-yl)-5-fluorobenzyl)methanesulfonamide], for which the EC50 in test [1] is 80 nM; with SW480 colon cancer cells, 677 nM; in test [2] it was 134 nM; with IL-6 it was 169 nM.

In the case of `CCNCc1cncc(-c2ccc3[nH]nc(-c4cc5ncccc5[nH]4)c3c2)c1` [Compound 510, N-((5-(3-(1H-pyrrolo[3,2-b]pyridin-2-yl)-1H-indazol-5-yl)pyridin-3-yl)methyl)ethanamine], the half-maximal effective concentration (EC50) in test [1] came out at 464 nM; in the test with SW480 colon cancer cells, 345 nM; in test [2], 1590 nM; in the test with IL-6, 98 nM.

As to `CN(C)CCNc1cc(F)cc(-c2cccc3[nH]c(-c4n[nH]c5ccc(-c6cncc(NC(=O)c7ccccc7)c6)cc45)cc23)c1` [Compound 459, N-(5-(3-(4-(3-((2-(Dimethylamino)ethyl)amino)-5-fluorophenyl)-1H-indol-2-yl)-1H-indazol-5-yl)pyridin-3-yl)benzamide], the EC50 amounted to 67 nM in test [1], 212 nM with SW480 colon cancer cells, 77 nM in test [2] and 109 nM in the test with IL-6.

In the case of `CC(C)(C)CC(=O)Nc1cncc(-c2ccc3[nH]nc(-c4cc5c(-c6cccnc6)cccc5[nH]4)c3c2)c1` [Compound 100, 3,3-Dimethyl-N-(5-(3-(4-(pyridin-3-yl)-1H-indol-2-yl)-1H-indazol-5-yl)pyridin-3-yl)butanamide], the EC50 turned out to be 475 nM in test [1], 1870 nM in the test with SW480 colon cancer cells, 449 nM in test [2] and 174 nM in the test on IL-6.

For the molecule `c1cncc(-c2cccc3[nH]c(-c4n[nH]c5ccc(-c6cn[nH]c6)cc45)cc23)c1` [Compound 583, 5-(1H-Pyrazol-4-yl)-3-(4-(pyridin-3-yl)-1H-indol-2-yl)-1H-indazole], the EC50 came out at 49 nM in test [1], 128 nM in the test on SW480 colon cancer cells, 501 nM in test [2] and 78 nM in the test on IL-6.

Regarding `Fc1ccccc1-c1cccc2[nH]c(-c3n[nH]c4ccc(-c5ccccn5)cc34)cc12` [Compound 84, 3-(4-(2-Fluorophenyl)-1H-indol-2-yl)-5-(pyridin-2-yl)-1H-indazole], the EC50 in test [1] stood at 2880 nM; with SW480 colon cancer cells, 4200 nM; in test [2], 6740 nM; in the test with IL-6, 2380 nM.

With `Cc1ccncc1-c1ccc2[nH]nc(-c3cc4c(-c5cc(F)cc(NCCN(C)C)c5)cccc4[nH]3)c2c1` [Compound 453, N^1-(3-Fluoro-5-(2-(5-(4-methylpyridin-3-yl)-1H-indazol-3-yl)-1H-indol-4-yl)phenyl)-N^2,N^2-dimethylethane-1,2-diamine], the EC50 in test [1] is 263 nM; in the test on SW480 colon cancer cells, 640 nM; in test [2], 1760 nM; in the test with IL-6, 244 nM.

As to `CS(=O)(=O)NCc1cc(F)cc(-c2cccc3[nH]c(-c4n[nH]c5ccc(-c6cncc(NC(=O)c7ccccc7)c6)cc45)cc23)c1` [Compound 487, N-(5-(3-(4-(3-Fluoro-5-(methylsulfonamidomethyl)phenyl)-1H-indol-2-yl)-1H-indazol-5-yl)pyridin-3-yl)benzamide], the EC50 turned out to be 650 nM in test [1], 3180 nM in the test on SW480 colon cancer cells, 313 nM in test [2] and 2060 nM in the test on IL-6.

For `Cc1ccncc1-c1ccc2[nH]nc(-c3cc4c(-c5cccc(F)c5)cccc4[nH]3)c2c1` [Compound 5, 3-(4-(3-Fluorophenyl)-1H-indol-2-yl)-5-(4-methylpyridin-3-yl)-1H-indazole], the EC50 in test [1] worked out at 300 nM; in the test on SW480 colon cancer cells, 563 nM; in test [2], 737 nM; with IL-6, 834 nM.

As to `CC(C)(C)C(=O)Nc1cncc(-c2ccc3[nH]nc(-c4cc5c(-c6ccncc6)cccc5[nH]4)c3c2)c1` [Compound 120, N-(5-(3-(4-(Pyridin-4-yl)-1H-indol-2-yl)-1H-indazol-5-yl)pyridin-3-yl) pivalamide], the EC50 in test [1] was 600 nM; with SW480 colon cancer cells it was 1450 nM; in test [2], 218 nM; in the test on IL-6, 445 nM.
